Test results reported in US20130317037A1, “METHOD OF ADMINISTRATION AND TREATMENT” (GlaxoSmithKline Intellectual Property Development Limited, priority 2010, published 2013).
Like-named read-outs stand apart in the source and are kept apart here.

Assays:
HCC1954 = assay: Panel A proliferation assay (CellTiter-Glo); HER2 Gain ≧5, KRAS WT, PIK3CA p.H1047R; type: cell-based, human; settings: for IC50: Homo sapiens
Method: A total of 15 breast cancer cell lines were used in this study. These cells were cultured in RPMI-1640 and supplemented with 5% or 10% fetal bovine serum, 2 mM GlutaMAX™ and 1 mM sodium pyruvate, or in growth medium recommended by the suppliers [American Type Culture Collection, Manassas, Va., USA; Developmental Therapeutics Program, National Cancer Institute, Bethesda, Md., USA; German Collection of Microorganisms and Cell Cultures (DSMZ), Braunschweig, Germany; European Collection of Cell Cultures (ECACC), Porton Down, UK]. Cells of each line were seeded into a 384-well microtiter plate at two cell densities. Low density ranges were 300-1800 cells/well, and a high density was 600 to 3600 cells/well). The plating density was determined by the rate of proliferation of the cell line in the absence of any inhibitor and varied amongst cell lines. High plating densities were double that of low density. Each cell density was plated in triplicate. In total there were 30 wells to be treated with increasing concentrations of Compound B for each cell line at each density. In addition, there were 24 wells of dimethyl sulfoxide (DMSO)-treated controls at each density. After seeding, the cells were incubated at 37° C. in 5% CO2 for 24 hours. Subsequently, Compound B was added to each cell line with 10 concentrations. The dosing solution of Compound B was first prepared in DMSO at a master stock concentration of 10 mM. […] were then made of the stock solution to give a range of working stock concentrations; 10.00 mM, 3.164 mM, 1.001 mM, 316.9 μM, 100.3 μM, 31.74 μM, 10.04 μM, 3.178 μM, 1.006 μM and 318.3 nM. The working stock concentrations of Compound B were then dispensed into the seeded cancer cell lines using a Biomek FX liquid handler to give final treatment concentrations of 0.1% of the stock concentration. A similar volume of DMSO without Compound B was dispensed into the 24 control wells of each seeding density at a concentration of 0.1%. Also, a zero-time plate prepared with a similar cell seeding was read for each cell line at each seeding density immediately after the addition of the DMSO control. After a 72 h incubation, an equal volume of the CellTiter-Glo (CellTiter-Glo Luminescent Cell Viability Assay, Promega, Madison, Wis.) to that of the cell culture medium was added into each well of the plate. After the contents were mixed to induce cell lysis and stabilization, cell luminescence was recorded using a SpectraMax M5^e (Molecular Devices, Sunnyvale, Calif., USA)
The luminescence of Compound B treated cells was compared relative to the average of the 24 DMSO-treated control wells at each cell density for every concentration of Compound B for all triplicate wells. The percent intensity values were used in model 205 of XLfit in Microsoft Excel to calculate gIC50s for the low and high seeding density (a 4 parameter logistical fit). Specifically, the midpoint of the growth window (the gIC50) falls half way between the number of cells at the time of compound addition (T=0) and the growth of control cells treated with DMSO. The gIC50 value serves as a metric for measuring the inhibition of proliferation in cancer cells. […] Finally, where data quality permits, the Ymin values (defined as the maximum growth inhibition relative to the cell density at Time-zero) were calculated as a measure of cytotoxicity where data were of reasonable quality.

MDA-MB-231 = assay: Panel A proliferation assay (CellTiter-Glo); HER2 2 copies, KRAS p.G13D, PIK3CA WT; type: cell-based, human; settings: for IC50: Homo sapiens
Method: A total of 15 breast cancer cell lines were used in this study. […] Cells of each line were seeded into a 384-well microtiter plate at two cell densities. Low density ranges were 300-1800 cells/well, and a high density was 600 to 3600 cells/well). The plating density was determined by the rate of proliferation of the cell line in the absence of any inhibitor and varied amongst cell lines. High plating densities were double that of low density. Each cell density was plated in triplicate. […] In addition, there were 24 wells of dimethyl sulfoxide (DMSO)-treated controls at each density. After seeding, the cells were incubated at 37° C. in 5% CO2 for 24 hours. […] After a 72 h incubation, an equal volume of the CellTiter-Glo (CellTiter-Glo Luminescent Cell Viability Assay, Promega, Madison, Wis.) to that of the cell culture medium was added into each well of the plate. After the contents were mixed to induce cell lysis and stabilization, cell luminescence was recorded using a SpectraMax M5^e (Molecular Devices, Sunnyvale, Calif., USA)
Specifically, the midpoint of the growth window (the gIC50) falls half way between the number of cells at the time of compound addition (T=0) and the growth of control cells treated with DMSO. The gIC50 value serves as a metric for measuring the inhibition of proliferation in cancer cells. The curves for each seeding density for each cell line were manually inspected for both data quality and appropriateness of curve fitting. Where the starting data were poor the curve and subsequent gIC50s were excluded from further analysis. Cell line seedings were considered of poor quality when the r^2 value of the fitted curve was <0.75. Finally, where data quality permits, the Ymin values (defined as the maximum growth inhibition relative to the cell density at Time-zero) were calculated as a measure of cytotoxicity where data were of reasonable quality.

Question: How did the “High Density Y-Min” value (HCC1954; HCC1954, high density, % of cells at T = 0) turn out when `COc1ncc(-c2ccc3nccc(-c4ccnnc4)c3c2)cc1NS(=O)(=O)c1ccc(F)cc1F` [Compound B, 2,4-difluoro-N-{2-(methyloxy)-5-[4-(4-pyridazinyl)-6-quinolinyl]-3-pyridinyl}benzenesulfonamide] was run?
Answer: The value was 18.3%.

Question: And the “Low Density Y-Min” value (HCC1954; HCC1954, low density, % of cells at T = 0)?
Answer: The value was 19.8%.

Question: What about the IC50 (HCC1954; HCC1954, high seeding density, 72 h, read-out: High Density gIC50) of the same compound?
Answer: The IC50 was 0.0034 µM.

Question: And the IC50 (HCC1954; HCC1954, low seeding density, 72 h, read-out: Low Density gIC50)?
Answer: The IC50 was 0.003 µM.

Question: What about the IC50 (HCC1954; HCC1954, mean of low and high density, read-out: Mean gIC50) of the same compound?
Answer: Its IC50 is 0.0032 µM.

Question: And the IC50 (MDA-MB-231; MDA-MB-231, high seeding density, 72 h, read-out: High Density gIC50)?
Answer: The IC50 was 0.357 µM.

Question: And the IC50 (MDA-MB-231; MDA-MB-231, low seeding density, 72 h, read-out: Low Density gIC50)?
Answer: Its IC50 is 0.0971 µM.

Question: And the IC50 (MDA-MB-231; MDA-MB-231, mean of low and high density, read-out: Mean gIC50)?
Answer: Its IC50 is 0.227 µM.

Question: What about the “High Density Y-Min” value (MDA-MB-231; MDA-MB-231, high density, % of cells at T = 0) of the same compound?
Answer: Its value is 357.2%.

Question: What about the “Low Density Y-Min” value (MDA-MB-231; MDA-MB-231, low density, % of cells at T = 0) of the same compound?
Answer: Its value is 189.1%.
